Results on 6 compounds are retold here after patent publication US20250277001A1, “PEPTIDE DERIVATIVES AND RELATED USES AS OREXIN AGONISTS” (CENTESSA PHARMACEUTICALS (UK) LIMITED, priority 2022, published 2025).

For experiment [1], the target named is T1, human orexin type 2 receptor (hOX2R) (Homo sapiens, UniProt O43614).
T1 construct: expressed in transfected cells
T1 sequence (O43614 1-444): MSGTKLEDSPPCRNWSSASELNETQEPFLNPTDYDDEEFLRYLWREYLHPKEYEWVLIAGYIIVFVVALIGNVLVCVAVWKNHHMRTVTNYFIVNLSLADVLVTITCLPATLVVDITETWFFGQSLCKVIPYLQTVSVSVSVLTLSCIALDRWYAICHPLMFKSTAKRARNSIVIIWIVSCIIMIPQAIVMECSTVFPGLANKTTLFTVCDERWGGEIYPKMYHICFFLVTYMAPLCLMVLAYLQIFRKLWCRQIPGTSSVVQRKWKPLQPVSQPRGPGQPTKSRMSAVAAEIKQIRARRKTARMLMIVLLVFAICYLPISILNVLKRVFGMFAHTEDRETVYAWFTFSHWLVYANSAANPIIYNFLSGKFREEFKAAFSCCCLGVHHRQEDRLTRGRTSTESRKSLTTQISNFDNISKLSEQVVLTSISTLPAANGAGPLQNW
Kind of experiment: Measurement of orexin type 2 receptor agonist activity (CHO cells, FLIPR TETRA intracellular Ca2+). In kind it is cell-based. An excerpt: (§1) In some embodiments, the assay uses cells stably expressing either human orexin type 2 or human orexin type 1 receptor. In some embodiments, the cells are obtained by inserting the Orexin receptor cDNA into pcDNA3.1(+) plasmid vector, identifying clones by G418 drug resistance selection, and/or growing a single clone for OX2R-CHO and OX1R-CHO in bulk. In some embodiments, the assay is detected using Fluorescent Imaging Plate Reader TETRA (FLIPR TETRA: manufactured by Molecular Devices). In some embodiments, the agonist activity of the test peptide is calculated assuming that the fluorescence value of the well containing only the dilution buffer is 0% and the fluorescence value of the well containing 10 nM human orexin A (Tocris) buffer is 100%.
(§2) Stable cell line generation. Obtainment of cells stably expressing either human orexin type 2 or human orexin type 1 receptor: to obtain a stable cell line the Orexin receptor cDNA was inserted into pcDNA3.1(+) plasmid vector and clones identified by G418 drug resistance selection. […] A single clone for OX2R-CHO and OX1R-CHO were grown in bulk and frozen to generate a cell bank for routine screening.
(§3) Measurement of orexin type 2 receptor agonist activity. Chinese hamster ovary (CHO) cells expressing human orexin type 2 receptor (hOX2R) seeded in each well of 384 well black clear bottom plates (BD Flacon) at 10,000 cells per well and cultured for 24 h in an Ham's F12 (Gibco) medium containing 10% fetal calf serum (Sigma Aldrich) under the conditions of 37° C., 5% CO2. After removal of the medium, 50 μL of assay buffer 1 (0.1% bovine serum albumin (Sigma Aldrich), 20 mM HEPES (Molecular Dimensions), […] probenecid (Sigma Aldrich), 1× Calcium 5 dye (Molecular Devices) in Hank's balanced salt solution (Invitrogen)) was added, and the cells were incubated for 60 min under the conditions of 37° C., 5% CO2. A test peptide was dissolved in dimethyl sulfoxide (Sigma Aldrich) to 1 mM, and then diluted with assay buffer 2 (20 mM HEPES, Hank's balanced salt solution, 0.1% bovine serum albumin). For the reaction, a test peptide solution (10 μl) was added using Fluorescent Imaging Plate Reader TETRA (FLIPR TETRA: manufactured by Molecular Devices), a fluorescence value (excitation wavelength 488 nm, measurement wavelength 570 nm) of each well was measured every one second for 2 min, and the agonist activity was determined using the area of the fluorescence value as an indicator of intracellular Ca^2+ concentration. The agonist activity of the test peptide was calculated assuming that the fluorescence value of the well added with only the dilution buffer was 0% and the fluorescence value of the well added with 10 nM human orexin A (Tocris) buffer was 100%. As used herein, Emax indicates the value at 1 μM concentration when orexin A is converted to a full agonist (maximum value of agonist activity: 100%).

The target in experiment [2] is T2, human orexin type 1 receptor (hOX1R) (Homo sapiens, UniProt O43613).
T2 construct: expressed in transfected cells
T2 sequence (O43613 1-425): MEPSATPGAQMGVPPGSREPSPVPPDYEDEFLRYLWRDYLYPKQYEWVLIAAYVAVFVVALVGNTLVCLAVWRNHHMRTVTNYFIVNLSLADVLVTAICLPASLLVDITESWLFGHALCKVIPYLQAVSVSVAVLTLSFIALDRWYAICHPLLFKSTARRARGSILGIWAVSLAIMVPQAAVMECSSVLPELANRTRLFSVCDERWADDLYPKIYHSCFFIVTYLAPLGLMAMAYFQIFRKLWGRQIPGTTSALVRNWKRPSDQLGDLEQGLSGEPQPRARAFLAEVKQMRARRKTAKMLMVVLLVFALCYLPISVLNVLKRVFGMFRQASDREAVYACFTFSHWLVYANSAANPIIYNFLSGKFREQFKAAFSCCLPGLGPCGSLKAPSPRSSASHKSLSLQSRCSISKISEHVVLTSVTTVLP
Kind of experiment: Measurement of orexin type 1 receptor agonist activity (CHO cells, FLIPR TETRA intracellular Ca2+). In kind it is cell-based.
Text: as §1, §2
as §3, with “type 1” for “type 2”, “receptor (hOX1R) were” for “receptor (hOX2R)”

Like-named read-outs stand apart in the source and are kept apart here. Where a SMILES comes first, the peptide text is derived from it. [ ]: non-standard residue; d: D form. The star is where a group is joined. Malonyl(2,2-Me2,histaminyl) = CC(C)(C(=O)NCCc1cnc[nH]1)C(=O)*; hArg(Et2) = CCN=C(NCC)NCCCC[C@H](N)C(=O)O; Gly(NCH2CH2Ph) = O=C(O)CNCCc1ccccc1; Hyp = O=C(O)[C@@H]1C[C@@H](O)CN1; hArg = N=C(N)NCCCC[C@H](N)C(=O)O; NMeN = CN[C@@H](CC(N)=O)C(=O)O; Aoc(2) = CCCCCC[C@H](N)C(=O)O; Phg = N[C@H](C(=O)O)c1ccccc1; Nle = CCCC[C@H](N)C(=O)O

Consider `CCCC[C@H](NC(=O)[C@@H](NC(=O)[C@H](CC(C)C)NC(=O)[C@@H](NC(=O)CNC(=O)[C@H](C)NC(=O)[C@H](C)NC(=O)[C@H](Cc1c[nH]cn1)NC(=O)[C@H](CC(N)=O)NC(=O)CNC(=O)[C@H](CO)NC(=O)[C@@H](C)NC(=O)[C@@H](Cc1ccccc1)NC(=O)[C@H](CC(C)C)NC(=O)[C@@H](N)Cc1ccccc1)[C@@H](C)CC)[C@@H](C)O)C(N)=O` [compound 13] (H-FL[dF][dA]SGNHAAGILT[Nle]-NH2), for which the EC50 in experiment [1] (CHO cells expressing hOX2R, Ca2+ fluorescence, read-out: hOX2 pEC50 (converted)) was below 0.1 nM; in experiment [2] (CHO cells expressing hOX1R, Ca2+ fluorescence, read-out: hOX1 pEC50 (converted)), above 10 nM.
Consider `CCCCCC[C@H](NC(=O)[C@@H](NC(=O)[C@H](CC(C)C)NC(=O)[C@@H](NC(=O)CNC(=O)[C@@H](NC(=O)[C@H](C)NC(=O)[C@H](Cc1c[nH]cn1)NC(=O)[C@H](CC(N)=O)NC(=O)CN(CCc1ccccc1)C(=O)[C@H](CCCCNC(=NCC)NCC)NC(=O)[C@@H]1CCCN1C(=O)[C@H](CCCCNC(=N)N)NC(=O)[C@H](CCC(N)=O)NC(=O)C(C)(C)C(=O)NCCc1cnc[nH]1)c1ccccc1)[C@@H](C)CC)[C@@H](C)O)C(N)=O` [compound 1] ({Malonyl(2,2-Me2,histaminyl)}-Q[hArg]P[hArg(Et2)][Gly(NCH2CH2Ph)]NHA[Phg]GILT[Aoc(2)]-NH2), for which the values for the EC50 in experiment [1] and in experiment [2] were below 0.1 nM and above 10 nM, respectively.
As for `CCCCCC[C@H](NC(=O)[C@@H](NC(=O)[C@H](CC(C)C)NC(=O)[C@@H](NC(=O)CNC(=O)[C@@H](NC(=O)[C@H](C)NC(=O)[C@@H]1C[C@@H](O)CN1C(=O)[C@H](CC(N)=O)N(C)C(=O)CN(CCc1ccccc1)C(=O)[C@H](CCCNC(=N)N)NC(=O)[C@H]1CCCN1C(=O)[C@H](CCCCNC(=N)N)NC(=O)[C@H](CCC(N)=O)NC(=O)C(C)(C)C(=O)NCCc1cnc[nH]1)c1ccccc1)[C@@H](C)CC)[C@@H](C)O)C(N)=O` [compound 6] ({Malonyl(2,2-Me2,histaminyl)}-Q[hArg][dP]R[Gly(NCH2CH2Ph)][NMeN][Hyp]A[Phg]GILT[Aoc(2)]-NH2), the values for the EC50 in experiment [1] and in experiment [2] were below 0.1 nM and above 10 nM, respectively.
On the same counts, the results for `CCCCCC[C@H](NC(=O)[C@@H](NC(=O)[C@H](CC(C)C)NC(=O)[C@@H](NC(=O)CNC(=O)[C@@H](NC(=O)[C@H](C)NC(=O)[C@@H]1C[C@@H](O)CN1C(=O)[C@H](CC(N)=O)NC(=O)CN(CCc1ccccc1)C(=O)[C@H](CCCNC(=N)N)NC(=O)[C@H](CCCNC(=N)N)NC(=O)[C@@H]1CCCN1C(=O)[C@H](CCCCNC(=N)N)NC(=O)[C@@H](CCC(N)=O)NC(=O)C(C)(C)C(=O)NCCc1cnc[nH]1)c1ccccc1)[C@@H](C)CC)[C@@H](C)O)C(N)=O` [compound 20] ({Malonyl(2,2-Me2,histaminyl)}-[dQ][hArg]PRR[Gly(NCH2CH2Ph)]N[Hyp]A[Phg]GILT[Aoc(2)]-NH2) are below 0.1 nM and 1 to 10 nM.
Take `CCCCCC[C@H](NC(=O)[C@@H](NC(=O)[C@H](CC(C)C)NC(=O)[C@@H](NC(=O)CNC(=O)[C@@H](NC(=O)[C@H](C)NC(=O)[C@@H]1C[C@@H](O)CN1C(=O)[C@H](CC(N)=O)N(C)C(=O)CN(CCc1ccccc1)C(=O)[C@H](CCCNC(=N)N)NC(=O)[C@H](CCCNC(=N)N)NC(=O)[C@@H]1CCCN1C(=O)[C@H](CCCCNC(=N)N)NC(=O)[C@H](CCC(N)=O)NC(=O)C(C)(C)C(=O)NCCc1cnc[nH]1)c1ccccc1)[C@@H](C)CC)[C@@H](C)O)C(N)=O` [compound 17] ({Malonyl(2,2-Me2,histaminyl)}-Q[hArg]PRR[Gly(NCH2CH2Ph)][NMeN][Hyp]A[Phg]GILT[Aoc(2)]-NH2): the EC50 is below 0.1 nM in experiment [1] and above 10 nM in experiment [2].
Take `CCCCCC[C@H](NC(=O)[C@@H](NC(=O)[C@H](CC(C)C)NC(=O)[C@@H](NC(=O)CNC(=O)[C@@H](NC(=O)[C@H](C)NC(=O)[C@H](Cc1c[nH]cn1)NC(=O)[C@H](CC(N)=O)NC(=O)CN(CCc1ccccc1)C(=O)[C@H](CCCNC(=N)N)NC(=O)[C@@H]1CCCN1C(=O)[C@H](CCCCNC(=N)N)NC(=O)[C@H](CCC(N)=O)NC(=O)C(C)(C)C(=O)NCCc1cnc[nH]1)c1ccccc1)[C@@H](C)CC)[C@@H](C)O)C(N)=O` [compound 2] ({Malonyl(2,2-Me2,histaminyl)}-Q[hArg]PR[Gly(NCH2CH2Ph)]NHA[Phg]GILT[Aoc(2)]-NH2): the EC50 in experiment [1] was below 0.1 nM; in experiment [2], above 10 nM.
